The values below come from US12636372B2, “Immolative cell-penetrating complexes for nucleic acid delivery to the lung” (The Board of Trustees of the Leland Stanford Junior …, priority 2019, dated 2026).

This data set is described as follows: In vitro toxicity assay: MTT proliferation assay. Format: cell-based. The note with it: 3 day incubation. An excerpt: FIGS. 3A-3F show the in vitro reporter and toxicity assays.
(Formazan colour is commonly taken as a measure of viable cells.)

With `NCCCC[C@H](NCCO)C(=O)O` [hydroxyethyl lysine], the Cellular viability entry is reported as “not affected”.
